Laboratory results as given in patent publication US8722731B2, “Furanyl compounds and the use thereof” (NovoMedix, LLC, priority 2010, dated 2014).

Experiments:
Pfeiffer = assay: IC50 cell-based assay, suspension cells, Pfeiffer; details: Homo sapiens, Lymphoma, Diffuse large b-cell, read-out: IC50 of Compounds in Suspension Cell Types
Description: (§1) In one embodiment, the IC50s of the compounds provided herein were determined in cell-based assays using adherent cells. In one embodiment, the activity of the compounds provided herein were determined in a cell-based assay using the triple negative breast cancer cell line MDA-MB-468. In one embodiment, the adherent cells used in the cell-based assays may be a cell type selected from Table 1. In one embodiment, the cell-based assay may be carried out as provided herein. On day 0, cells were seeded at 20,000 cells per well in 100 µL of media into individual wells of a 96-well tissue culture plate. The next day, compounds were diluted to twice the desired final concentration and added in 100 µL of media for a final volume of 200 μL. Standard solutions for each compound were prepared at 1000× concentration in DMSO. The highest concentration was 30 mM. Serial 1:1 dilutions were made from there for a 6- or 9-point curve (e.g., 30 mM, 15 mM, 7.5 mM, etc). Compounds were then diluted 1:500 in media, and 100 µL of the resulting solution was added to each well for a final dilution of 1:1000. Each concentration of compound was tested in triplicate. Cells were incubated at 37° C. with 5% CO2. After 72 hours, 20 μL of CellTiter 96 Aqueous One Solution Cell Proliferation Assay (Promega) was added to each well. Cells were placed back in the incubator, and the absorbance at 490 nm was read after 2-3 hours. The concentration of compound that decreased the number of metabolically active cells by 50% was determined and reported as the IC50. “Percent Viability” was determined by subtracting the average background value (media only) and expressed as a ratio to the average value obtained from cells treated with only DMSO.
(§2) In one embodiment, the IC50s of the compounds provided herein were determined in cell-based assays using suspension cells. In one embodiment, the activity of the compounds provided herein were determined in a cell-based assay using the JeKo-1 cell line (mantle cell lymphoma) or the Pfeiffer cell line (diffuse large B-cell lymphoma). In one embodiment, the suspension cells used in the cell-based assays may be a cell type selected from Table 2. Assays with suspension cells were similar except that 40,000-60,000 cells were added to each well and compounds were added immediately after cell plating.

[1] = Percent weight change of animals in MDA-MB-468 xenograft study; type: in vivo, Mouse/SCID; details: qd 50 mg/kg IP, SCID mice
Description: (§3) In one embodiment, the effects of a compound provided herein on tumor growth in a mouse animal model were evaluated. In specific embodiments, the mouse animal model was the MDA-MB-468 xenograft model for breast cancer. Studies were performed to evaluate the effect of a compound provided herein on the growth of MDA-MB-468 breast tumors in mice. The test system that was used is summarized below:
(§4) Exemplary Protocol: Ten mice per group were inoculated s.c. on the left flank with 5×10^6 MDA-MB-468 cells. When tumors reached a mean volume of 100 or 200 mm^3, animals began treatment with a compound provided herein (See Table 4). Test article or vehicle were given once daily by IP injection for up to 21 days. Tumors were evaluated every Monday, Wednesday and Friday, body weights and condition were evaluated on a daily basis.
Animal Weight: All animals were weighed […] throughout the study. Group weight change was expressed as a daily group mean weight. Animals that lost greater than 20% of their total starting body weight were euthanized.
(§5) Compound 1 was dosed in mice at a dose of, for example, qd 50 mg/kg, for 22 days or more.
(§6) Compound 2 was dosed in mice at a dose of, for example, qd 20 mg/kg from day 0 to 7, then qd 10 mg/kg from day 8 and thereafter, for 22 days or more.

Caki-1 = assay: IC50 cell-based assay, adherent cells, Caki-1; details: Homo sapiens, Kidney, clear cell carc., skin met, 72 hours, read-out: IC50 of Compounds in Adherent Cell Types
Description: as §1

RT-4 = assay: IC50 cell-based assay, adherent cells, RT-4; details: Homo sapiens, Bladder, papilloma, 72 hours, read-out: IC50 of Compounds in Adherent Cell Types
Description: as §1

HL-60 = assay: IC50 cell-based assay, suspension cells, HL-60; details: Homo sapiens, Leukemia, AML, read-out: IC50 of Compounds in Suspension Cell Types
Description: as §1, §2

MCF-7 = assay: IC50 cell-based assay, adherent cells, MCF-7; details: Homo sapiens, MCF7, Breast, ER+, 72 hours, read-out: IC50 of Compounds in Adherent Cell Types
Description: as §1

MDA-MB-468 breast tumors = assay: Tumor growth inhibition in MDA-MB-468 mouse xenograft model for breast cancer (tumor volume); type: in vivo; details: qd 50 mg/kg IP, SCID mice
Description: as §3, §4
Cell Culture: MDA-MB-468 breast cancer cells were grown in Liebowitz's L-15 with 10% fetal bovine serum and 1% pen/strep. Cells were routinely trypsinized and passaged 1:4. On the day of implantation, cells were washed in PBS, trypsinized and resuspended in complete media. Cells were washed 3× in serum free media (centrifuged 1000 rpm for 5 min). Cells were resuspended to a density of 1×10^8 cells/mL and diluted 1:1 with Matrigel. Cells were implanted s.c. using a 23 G needle in a volume of 0.1 mL.
Tumor Measurement: Tumors were monitored daily. If, during a daily evaluation, an animal's tumor appeared to have exceeded 1500 mm^3, the tumor was measured; and animals with tumors greater than 1500 mm^3 and/or that had become necrotic and/or hindered movement were euthanized. Tumors were measured twice weekly by measuring each tumor in 2 dimensions, along the largest dimension (length, L) and perpendicular to this dimension (width, W). Tumor weights were calculated using the standard formula: (L×W^2)/2. The mean tumor weight and standard error of the mean were calculated for each group at each time point. An ANOVA was used to compare differences of primary tumor volume.
as §5, §6

A549 = assay: IC50 cell-based assay, adherent cells, A549; details: Homo sapiens, Lung, NSCLC, 72 hours, read-out: IC50 of Compounds in Adherent Cell Types
Description: as §1

1937 = assay: IC50 cell-based assay, adherent cells, 1937; details: Breast, triple neg, 72 hours, read-out: IC50 of Compounds in Adherent Cell Types
Description: as §1

Compound: O=C(Nc1cc(C(F)(F)F)cc(C(F)(F)F)c1)c1cc(-c2ccccc2)oc1C(F)(F)F [Compound 1, 5-Phenyl-2-trifluoromethyl-furan-3-carboxylic acid (3,5-bis-trifluoromethyl-phenyl)-amide]
- IC50 (Pfeiffer): < 5 µM
- Percent Weight Change of Control and Treated Animals, mean ([1]; Day 1): 0.00%
- Percent Weight Change of Control and Treated Animals, mean ([1]; Day 2): −0.44%
- Percent Weight Change of Control and Treated Animals, mean ([1]; Day 3): −1.43%
- Percent Weight Change of Control and Treated Animals, mean ([1]; Day 4): −2.23%
- Percent Weight Change of Control and Treated Animals, mean ([1]; Day 5): −2.06%
- Percent Weight Change of Control and Treated Animals, mean ([1]; Day 6): −2.03%
- Percent Weight Change of Control and Treated Animals, mean ([1]; Day 7): −3.50%
- Percent Weight Change of Control and Treated Animals, mean ([1]; Day 8): −4.53%
- Percent Weight Change of Control and Treated Animals, mean ([1]; Day 9): −2.38%
- Percent Weight Change of Control and Treated Animals, mean ([1]; Day 10): −3.42%
- Percent Weight Change of Control and Treated Animals, mean ([1]; Day 11): −1.63%
- Percent Weight Change of Control and Treated Animals, mean ([1]; Day 12): 1.40%
- Percent Weight Change of Control and Treated Animals, mean ([1]; Day 13): 1.13%
- Percent Weight Change of Control and Treated Animals, mean ([1]; Day 14): −0.56%
- Percent Weight Change of Control and Treated Animals, mean ([1]; Day 15): 2.28%
- Percent Weight Change of Control and Treated Animals, mean ([1]; Day 16): 2.07%
- Percent Weight Change of Control and Treated Animals, mean ([1]; Day 17): 2.03%
- Percent Weight Change of Control and Treated Animals, mean ([1]; Day 18): 2.87%
- Percent Weight Change of Control and Treated Animals, mean ([1]; Day 19): 4.84%
- Percent Weight Change of Control and Treated Animals, mean ([1]; Day 20): 0.92%
- Percent Weight Change of Control and Treated Animals, mean ([1]; Day 21): 1.87%
- Percent Weight Change of Control and Treated Animals, mean ([1]; Day 22): 0.07%
- IC50 (Caki-1): > 20 µM
- IC50 (RT-4): 10 to 20 µM
- IC50 (HL-60): < 5 µM
- IC50 (MCF-7): < 5 µM
- Tumor Volumes in Control and Treated Animals, mean (MDA-MB-468 breast tumors; Day 1): 112.66 mm^3
- Tumor Volumes in Control and Treated Animals, mean (MDA-MB-468 breast tumors; Day 3): 101.41 mm^3
- Tumor Volumes in Control and Treated Animals, mean (MDA-MB-468 breast tumors; Day 5): 91.44 mm^3
- Tumor Volumes in Control and Treated Animals, mean (MDA-MB-468 breast tumors; Day 8): 146.58 mm^3
- Tumor Volumes in Control and Treated Animals, mean (MDA-MB-468 breast tumors; Day 10): 175.96 mm^3
- Tumor Volumes in Control and Treated Animals, mean (MDA-MB-468 breast tumors; Day 12): 226.90 mm^3
- Tumor Volumes in Control and Treated Animals, mean (MDA-MB-468 breast tumors; Day 15): 276.23 mm^3
- Tumor Volumes in Control and Treated Animals, mean (MDA-MB-468 breast tumors; Day 17): 336.22 mm^3
- Tumor Volumes in Control and Treated Animals, mean (MDA-MB-468 breast tumors; Day 19): 366.60 mm^3
- Tumor Volumes in Control and Treated Animals, mean (MDA-MB-468 breast tumors; Day 22): 383.38 mm^3
- IC50 (A549): < 5 µM
- IC50 1937: < 5 µM
